Assay results reported in article PMC3306125 (Journal of Medicinal Chemistry, 2012).

Tests used:
topoisomerase II = assay: KDNA decatenation assay; type: biochemical; conditions: 50 μM drug, 10 min at 37°C, gel
acetyl tubulin = assay: Western blot of tubulin acetylation in DU-145 cells; conditions: DU-145, 4 h; DAU 90, 500 nM; 7 130, 500 nM; 12b 1.31, 10 μM
HDAC 8 = molecular target: T1, HDAC 8 (Homo sapiens, UniProt Q9BY41); assay: Recombinant HDAC 8 inhibition; conditions: HDAC 8 vs HDAC 1
T1 sequence (Q9BY41 1-377): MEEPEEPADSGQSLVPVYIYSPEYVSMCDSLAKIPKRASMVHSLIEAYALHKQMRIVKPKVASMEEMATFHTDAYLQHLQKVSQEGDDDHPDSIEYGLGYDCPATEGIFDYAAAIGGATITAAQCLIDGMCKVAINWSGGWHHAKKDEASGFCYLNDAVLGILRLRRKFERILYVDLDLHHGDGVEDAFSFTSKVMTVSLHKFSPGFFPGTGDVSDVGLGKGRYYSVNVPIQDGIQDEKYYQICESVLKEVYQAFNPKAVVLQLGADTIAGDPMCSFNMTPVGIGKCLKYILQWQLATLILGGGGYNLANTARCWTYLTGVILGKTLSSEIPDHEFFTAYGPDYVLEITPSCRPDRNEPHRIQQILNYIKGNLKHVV

[1] = tested on: Topo II-DNA cleavage complexes; assay: Cellular Topo II inhibition; type: cell-based, human; conditions: 90 nM DAU, 130 nM 7, […] 12b; for stabilized Topo II-DNA cleavage complexes, 30 min treatment: DU-145, 30 min; for stabilized Topo II-DNA cleavage complexes, 72 hour treatment: DU-145, 72 h
HDAC 6 = molecular target: T2, HDAC 6 (Homo sapiens, UniProt Q9UBN7); assay: Recombinant HDAC 6 inhibition; type: biochemical
T2 sequence (Q9UBN7 1-1215): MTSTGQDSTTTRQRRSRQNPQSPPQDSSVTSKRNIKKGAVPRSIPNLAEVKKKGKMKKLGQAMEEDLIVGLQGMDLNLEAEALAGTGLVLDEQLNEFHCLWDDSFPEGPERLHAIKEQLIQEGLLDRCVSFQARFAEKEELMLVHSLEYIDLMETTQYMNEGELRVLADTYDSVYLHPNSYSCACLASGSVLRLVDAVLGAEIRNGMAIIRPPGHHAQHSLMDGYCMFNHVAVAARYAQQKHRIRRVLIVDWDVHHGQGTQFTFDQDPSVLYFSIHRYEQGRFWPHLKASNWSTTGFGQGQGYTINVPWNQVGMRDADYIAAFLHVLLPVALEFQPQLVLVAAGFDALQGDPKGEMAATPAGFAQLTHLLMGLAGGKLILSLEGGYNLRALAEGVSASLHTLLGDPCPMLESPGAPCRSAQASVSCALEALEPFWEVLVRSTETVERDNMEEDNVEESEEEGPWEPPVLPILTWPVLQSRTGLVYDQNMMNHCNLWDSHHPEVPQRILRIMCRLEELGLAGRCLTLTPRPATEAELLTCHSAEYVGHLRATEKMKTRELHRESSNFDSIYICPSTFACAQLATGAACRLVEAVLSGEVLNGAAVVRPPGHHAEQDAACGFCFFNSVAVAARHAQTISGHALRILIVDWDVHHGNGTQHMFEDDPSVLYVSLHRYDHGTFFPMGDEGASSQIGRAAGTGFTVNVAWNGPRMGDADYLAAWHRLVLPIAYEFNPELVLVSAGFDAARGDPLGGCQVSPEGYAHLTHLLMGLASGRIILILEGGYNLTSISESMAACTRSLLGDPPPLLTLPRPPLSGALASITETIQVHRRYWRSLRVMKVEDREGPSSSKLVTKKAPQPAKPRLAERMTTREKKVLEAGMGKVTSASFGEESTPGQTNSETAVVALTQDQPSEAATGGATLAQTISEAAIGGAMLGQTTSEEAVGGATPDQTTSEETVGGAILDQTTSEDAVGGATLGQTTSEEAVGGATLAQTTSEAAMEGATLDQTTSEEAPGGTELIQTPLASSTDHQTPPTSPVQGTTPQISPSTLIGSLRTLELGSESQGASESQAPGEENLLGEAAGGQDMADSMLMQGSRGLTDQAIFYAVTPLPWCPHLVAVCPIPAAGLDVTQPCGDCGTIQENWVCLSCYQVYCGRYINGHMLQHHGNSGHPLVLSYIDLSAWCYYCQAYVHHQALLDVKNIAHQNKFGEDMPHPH

[2] = tested on: acetylated histones H4 and H3; assay: Western blot of histone H4 and H3 acetylation in DU-145 cells; type: cell-based, human; conditions: DU-145, 24 h; SAHA 2.5, 5 μM; DAU 0.1, 0.5 μM; 7 0.5, 1 μM; 12b 2.5, 5 μM
HDAC 1 = HDAC 1 (Homo sapiens, UniProt Q13547); assay: Recombinant HDAC 1 inhibition; conditions: 12c vs 12a
Chain of HDAC 1 (Q13547 whole entry): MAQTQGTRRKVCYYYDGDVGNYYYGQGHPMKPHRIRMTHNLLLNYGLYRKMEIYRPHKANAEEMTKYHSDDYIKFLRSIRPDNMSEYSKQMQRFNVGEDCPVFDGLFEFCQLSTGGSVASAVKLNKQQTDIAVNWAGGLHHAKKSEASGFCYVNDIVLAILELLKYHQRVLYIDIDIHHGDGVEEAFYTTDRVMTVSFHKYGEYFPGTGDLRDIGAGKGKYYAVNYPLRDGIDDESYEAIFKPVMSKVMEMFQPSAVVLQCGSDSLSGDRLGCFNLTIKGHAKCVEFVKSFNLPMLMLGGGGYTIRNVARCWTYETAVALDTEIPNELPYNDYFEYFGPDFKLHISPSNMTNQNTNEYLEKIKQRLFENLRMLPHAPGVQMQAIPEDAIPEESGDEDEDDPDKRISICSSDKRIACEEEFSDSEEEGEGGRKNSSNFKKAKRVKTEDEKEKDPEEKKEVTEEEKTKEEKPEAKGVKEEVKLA

[3] = tested on: HeLa cell nuclear extract HDACs (HDAC 1/2); assay: In vitro HDAC inhibition, HeLa nuclear extract; type: biochemical; conditions: relative to 12a

SMILES	Topo II inhibition (KDNA decatenation) (topoisomerase II)	tubulin acetylation (immunoblot) (acetyl tubulin)	anti-HDAC 8 activity, fold less than anti-HDAC 1 activity (HDAC 8)	stabilized Topo II-DNA cleavage complexes, 30 min treatment [1]	stabilized Topo II-DNA cleavage complexes, 72 hour treatment [1]	IC50 (HDAC 6) [nM]	histone H4 acetylation (immunoblot) [2]	fold activity difference between 12a and 12c, HDAC inhibitory activity (HDAC 1)	fold more potent than 12a, HeLa nuclear extract HDACs [3]
COc1cccc2c1C(=O)c1c(O)c3c(c(O)c1C2=O)C[C@@](O)(C(C)=O)C[C@@H]3O[C@H]1C[C@H](NCc2ccc(NC(=O)CCCCCCC(=O)NO)cc2)[C@H](O)[C@H](C)O1 [Compound 7, Daunorubicin-N-benzyl-4-amino-8-oxooctahydroxamic Acid]	comparable levels to that of DAU	moderate levels of acetylation	about 4 fold	indistinguishable from that of the control cells	measured increase in Topo II inhibition				
COc1cccc2c1C(=O)c1c(O)c3c(c(O)c1C2=O)C[C@@](O)(C(C)=O)C[C@@H]3O[C@H]1C[C@H](NCc2ccc(-c3cn(CCCCC(=O)NO)nn3)cc2)[C@H](O)[C@H](C)O1 [Compound 12a, Daunorubicin-N-benzyl-4-triazolylpentahydroxamic Acid]	lower Topo II inhibition activity					600			
COc1cccc2c1C(=O)c1c(O)c3c(c(O)c1C2=O)C[C@@](O)(C(C)=O)C[C@@H]3O[C@H]1C[C@H](NCc2ccc(-c3cn(CCCCCC(=O)NO)nn3)cc2)[C@H](O)[C@H](C)O1 [Compound 12b, Daunorubicin-N-benzyl-4-triazolylhexahydroxamic Acid]	comparable levels to that of DAU	robust acetylation		significantly higher amount	drastic drop		strong H4 acetylation		
COc1cccc2c1C(=O)c1c(O)c3c(c(O)c1C2=O)C[C@@](O)(C(C)=O)C[C@@H]3O[C@H]1C[C@H](NCc2ccc(-c3cn(CCCCCCC(=O)NO)nn3)cc2)[C@H](O)[C@H](C)O1 [Compound 12c, Daunorubicin-N-benzyl-4-triazolylheptahydroxamic Acid]	near total inhibition							~ 600 fold	
COc1cccc2c1C(=O)c1c(O)c3c(c(O)c1C2=O)C[C@@](O)(C(C)=O)C[C@@H]3O[C@H]1C[C@H](NCc2ccc(-c3cn(CCCCCCCC(=O)NO)nn3)cc2)[C@H](O)[C@H](C)O1 [Compound 12d, Daunorubicin-N-benzyl-4-triazolyloctahydroxamic Acid]	lower Topo II inhibition activity								about 20 fold
COc1cccc2c1C(=O)c1c(O)c3c(c(O)c1C2=O)C[C@@](O)(C(C)=O)C[C@@H]3O[C@H]1C[C@H](N)[C@H](O)[C@H](C)O1 [DAU, daunomycin, reference compound]	severe impairment of DNA decatenation	lowest levels of acetylation		high levels	significant inhibition of Topo II activity				
